Test results: ChEMBL document CHEMBL5385969, “Design, synthesis, in vitro and in silico evaluation of indole-based tetrazole derivatives as putative anti-breast cancer agents” (RSC Med Chem, 2024)

Assays:
[1] = Cytotoxicity against human HEK293 cells incubated for 48 hrs by MTT assay; assay type: toxicity, cell-based
[2] = tested on: MDA-MB-231; experiment: cells; settings: Homo sapiens, MDA-MB-231, 48 h
Description: Antiproliferative activity against human MDA-MB-231 cells assessed as inhibition of cell growth incubated for 48 hrs by MTT assay

[3] = tested on: T47D; experiment: cells; settings: Homo sapiens, 48 h
Description: Antiproliferative activity against human T47D cells assessed as inhibition of cell growth incubated for 48 hrs by MTT assay

[4] = tested on: MCF7; experiment: cells; settings: Homo sapiens, MCF7, 48 h
Description: Antiproliferative activity against human MCF7 cells assessed as inhibition of cell growth incubated for 48 hrs by MTT assay

## Clc1ccc(Cn2nnc(-c3cn(Cc4ccccc4)c4ccccc34)n2)cc1
[1]
  IC50 at 48 h: 109 µM
[2]
  IC50: 15.7 µM
[3]
  IC50: 3.83 µM
[4]
  IC50: 7.83 µM

## Cc1ccc(Cn2nnc(-c3cn(Cc4ccc(C)cc4)c4ccccc34)n2)cc1
[2]
  IC50: 15.8 µM
[3]
  IC50: > 25 µM
[4]
  IC50: > 25 µM

## Cc1ccc(Cn2nnc(-c3cn(Cc4ccccc4)c4ccccc34)n2)cc1
[2]
  IC50: 13.4 µM
[3]
  IC50: 10.1 µM
[4]
  IC50: 11.3 µM

## Cc1ccc(Cn2cc(-c3nnn(Cc4ccc(Cl)cc4Cl)n3)c3ccccc32)cc1
[2]
  IC50: 16.7 µM
[3]
  IC50: 10.6 µM
[4]
  IC50: 16.6 µM

## Cc1ccc(Cn2cc(-c3nnnn3Cc3cccc(Cl)c3)c3ccccc32)cc1
[2]
  IC50: 8.52 µM
[3]
  IC50: 20 µM
[4]
  IC50: 14.8 µM

## Cc1ccc(Cn2cc(-c3nnn[nH]3)c3ccccc32)cc1
[2]
  IC50: 13.8 µM
[3]
  IC50: 14.1 µM
[4]
  IC50: 9.99 µM

## Cc1ccc(Cn2nnnc2-c2cn(Cc3ccc(C)cc3)c3ccccc23)cc1
[2]
  IC50: 9.72 µM
[3]
  IC50: 23.7 µM
[4]
  IC50: 20.6 µM

## Cc1c(-c2ccc(O)cc2)n(Cc2ccc(OCCN3CCCCCC3)cc2)c2ccc(O)cc12 [BAZEDOXIFENE]
[1]
  IC50 at 48 h: 38.5 µM
[2]
  IC50: 6.73 µM
[3]
  IC50: 14.2 µM
[4]
  IC50: 7.31 µM

## Clc1ccc(Cn2nnc(-c3cn(Cc4ccccc4)c4ccccc34)n2)cc1Cl
[1]
  IC50 at 48 h: > 125 µM
[2]
  IC50: 19.4 µM
[3]
  IC50: 10 µM
[4]
  IC50: 7.95 µM

## Fc1ccc(Cn2nnc(-c3cn(Cc4ccccc4)c4ccccc34)n2)cc1
[2]
  IC50: 12.9 µM
[3]
  IC50: 17.8 µM
[4]
  IC50: 22.7 µM

## Cc1ccc(Cn2cc(-c3nnn(Cc4ccc(Cl)cc4)n3)c3ccccc32)cc1
[2]
  IC50: 11.6 µM
[3]
  IC50: 18.8 µM
[4]
  IC50: 16.4 µM

## Cc1ccc(Cn2cc(-c3nnnn3Cc3ccc(Cl)cc3Cl)c3ccccc32)cc1
[2]
  IC50: 11.2 µM
[3]
  IC50: 8.15 µM
[4]
  IC50: 8.32 µM

## Cc1ccc(Cn2cc(-c3nnnn3Cc3ccccc3)c3ccccc32)cc1
[2]
  IC50: 9.62 µM
[3]
  IC50: 14.5 µM
[4]
  IC50: 9.93 µM

## Cc1ccc(Cn2cc(-c3nnn(Cc4cccc(Cl)c4)n3)c3ccccc32)cc1
[2]
  IC50: 12.8 µM
[3]
  IC50: 14.2 µM
[4]
  IC50: 13.2 µM

## c1ccc(Cn2cc(-c3nnn[nH]3)c3ccccc32)cc1
[2]
  IC50: 16.6 µM
[3]
  IC50: 24.4 µM
[4]
  IC50: > 25 µM

## Cc1ccc(Cn2cc(-c3nnn(Cc4ccc(Cl)c(Cl)c4)n3)c3ccccc32)cc1
[2]
  IC50: 14.9 µM
[3]
  IC50: 23.9 µM
[4]
  IC50: 8.73 µM

## Cc1ccc(Cn2cc(-c3nnn(Cc4ccccc4)n3)c3ccccc32)cc1
[2]
  IC50: 8.2 µM
[3]
  IC50: 15.8 µM
[4]
  IC50: 11.9 µM

## c1ccc(Cn2nnc(-c3cn(Cc4ccccc4)c4ccccc34)n2)cc1
[2]
  IC50: 14.7 µM
[3]
  IC50: 13.5 µM
[4]
  IC50: 9.24 µM

## COc1cccc(Cn2nnc(-c3cn(Cc4ccc(C)cc4)c4ccccc34)n2)c1
[2]
  IC50: 12.1 µM
[3]
  IC50: > 25 µM
[4]
  IC50: 15.1 µM

## COc1cccc(Cn2nnc(-c3cn(Cc4ccccc4)c4ccccc34)n2)c1
[2]
  IC50: 15.9 µM
[3]
  IC50: 16.5 µM
[4]
  IC50: 3.08 µM

## Clc1cccc(Cn2nnc(-c3cn(Cc4ccccc4)c4ccccc34)n2)c1
[2]
  IC50: 18.8 µM
[3]
  IC50: 11.7 µM
[4]
  IC50: 14.2 µM

## Clc1ccc(Cn2nnc(-c3cn(Cc4ccccc4)c4ccccc34)n2)c(Cl)c1
[2]
  IC50: 7.69 µM
[3]
  IC50: 10.9 µM
[4]
  IC50: 12.7 µM

## Cc1ccc(Cn2cc(-c3nnnn3Cc3ccc(Cl)c(Cl)c3)c3ccccc32)cc1
[2]
  IC50: 12.4 µM
[3]
  IC50: 9.01 µM
[4]
  IC50: 10.2 µM

## Cc1ccc(Cn2cc(-c3nnn(Cc4ccc(F)cc4)n3)c3ccccc32)cc1
[2]
  IC50: 13.1 µM
[3]
  IC50: 15.8 µM
[4]
  IC50: 13.3 µM
